Laboratory results as given in patent publication US6919092B2, “Method for the management of incontinence” (ALZA Corporation, priority 1995, dated 2005).

Experiment: Multiple dose crossover clinical pharmacokinetic study, IR vs CR oxybutynin
Conditions: plasma

CCNCC#CCOC(=O)C(O)(c1ccccc1)C1CCCCC1 (stereo not shown) [DESOXY]
t1/2 life of DESOXY compared to OXY: shorter
